Molecules are shown by their SMILES. ≈ marks a conversion by molar mass, not a printed value.

One experiment deals with P388. Description: Cytotoxicity against mouse P388 cells. The experiment is classed as functional. The conditions noted are these: read-out: ED50 (the source's name).
In a further experiment the test system is L1210. Put plainly: Cytotoxicity against mouse L1210 cells. The experiment is classed as functional. The conditions noted are these: read-out: ED50 (the source's name).

On to `C=C1C(=O)O[C@]2(C)CC[C@@H]1C[C@@H]1O[C@@]1(C)CC[C@H](OC(C)=O)[C@@]1(C)CC[C@@H]2O1`, for which the EC50 in the experiment on P388 was determined as 2.5 µg/mL (≈ 6.37 µM); in the experiment on L1210, 5 µg/mL (≈ 12.7 µM).
The like results for `C=C1C(=O)O[C@]2(C)CC[C@@H]1C[C@@H](O)[C@@](C)(O)CC/C=C(\C)CC[C@@H]2O` [CAPILLOLIDE] were, in that order, 15 µg/mL (≈ 42.6 µM) and 18.5 µg/mL (≈ 52.5 µM).
The like results for `C=C1C(=O)O[C@@H]2C[C@H]1CC[C@]1(C)O[C@H]1CC/C(C)=C/CC[C@@]2(C)O` [FLEXIBILIDE] were, in that order, 1.5 µg/mL (≈ 4.48 µM) and 3 µg/mL (≈ 8.97 µM).
As to `C=C1C(=O)O[C@]2(C)CC[C@@H]1C[C@@H]1O[C@@]1(C)CC/C=C(\C)CC[C@@H]2O` [SINULARIOLIDE], the results for the EC50 in the experiment on P388 and in the experiment on L1210 were 8.5 µg/mL (≈ 25.4 µM) and 10 µg/mL (≈ 29.9 µM), respectively.
